We go through one substance from US20090227489A1, “STAT3 Agonists and Antagonists and Therapeutic Uses Thereof” (Johns Hopkins University, priority 2000, published 2009).

This experiment deals with B16 cells. Briefly: Macrophage-mediated antitumor cytotoxicity (3H-TdR incorporation). It counts as cell-based, murine. As to conditions: added to macrophages before supernatant; NMA 0.5 mM, catalase 500 U/ml.

Method: Macrophages (˜1×10^5) were incubated in 50% supernatants from Stat3β-transfected (S-Stat3β) or GFP-vector transfected (S-GFP) B16 cells for 6 h. The supernatants were replaced by normal complete medium and wild-type B16 cells (1×10^4) were added.
Macrophage-mediated antitumor cytotoxicity. Antitumor cytotoxic activity of macrophages against B16 cells was determined by inhibition of DNA synthesis. Briefly, peritoneal macrophages (1×10^5) were incubated in 50% supernatants derived from either wild type, pIRES-Stat3β or pIRES-GFP transfected, or UV-irradiated B16 cells for 6 h. After replacing the supernatants with normal complete medium, B16 cells (1.0×10^4/well) were added and co-cultured for 48 h with and without peritoneal macrophages. For some experiments, NOS inhibitor, N-monomethyl-L-arginine (NMA) (0.5 mM, Sigma) or H202 quencher, catalase (500 U/ml, Boehringer Mannheim, Indianapolis, Ind.) were added to macrophages before adding supernatant from Stat3β-transfected B16 cells. The co-cultured cells were pulsed with 3H-thymidine (3H-TdR) (0.25 μCi/well) during the last 6 h of incubation to estimate DNA synthesis. 3H-TdR incorporation was determined using a liquid scintillation β-counter (Pharmacia Wallac, Finland).
3H-thymidine incorporation to estimate DNA synthesis and cell proliferation was performed.

Turning to catalase, the “effect on macrophage-mediated cytostasis induced by Stat3β supernatant” value is “does not influence macrophage cytotoxic effects against B16 cells”.
